Laboratory results as given in PMC3626541, “A first in human, safety, pharmacokinetics, and clinical activity phase I study of once weekly administration of the Hsp90 inhibitor ganetespib (STA-9090) in patients with solid malignancies” (BMC Cancer, 2013).
Entries after “also recorded” stand apart in the source; their conditions may differ.

Experiments:
advanced solid tumors = assay: Tumor response (RECIST v1.0); type: in vivo, human; conditions: for Disease control rate (≥ 8 weeks): complete and partial responses, and stable disease ≥ 8 weeks; for Disease control rate (≥ 16 weeks): complete and partial responses, and stable disease ≥ 16 weeks; for Best response: Complete response / Best response: Non-evaluable / Best response: Partial response / Best response: Progressive disease / Best response: Stable disease: investigator-evaluated
Experimental: Patients’ demographics and medical history were recorded at baseline. Physical examination and PS were assessed at baseline and on Day 1 of each cycle. Adverse events (AEs), vital signs, hematology and chemistry values, and creatinine clearance were assessed at baseline and weekly during treatment. Toxicity was graded using National Cancer Institute Common Terminology Criteria for Adverse Events (NCI CTCAE), version 3.0. An electrocardiogram (ECG) was performed at baseline, before and after treatment on Days 1 and 15 of Cycles 1 and 2, and on Day 15 of even-numbered cycles thereafter. CT scans were done at baseline and every 8 weeks thereafter. Tumor response was assessed using Response Evaluation Criteria in Solid Tumors (RECIST, v1.0), with confirmation of responses performed at least 4 weeks later.

[1] = Plasma pharmacokinetics (HPLC-MS/MS, non-compartmental); type: in vivo, human
Experimental: Blood samples were taken for ganetespib plasma concentration determination on Days 1 and 15 of Cycle 1 pre-dose, 0.5, 1, 1.5, 2, 4, 6, 8 and 24 h after infusion initiation. Samples were also drawn pre-dose and at 1 h, on Day 8 of Cycle 1 and Days 1, 8 and 15 of subsequent cycles. Plasma was separated and stored at a −70°C until analysis. Analyses were performed by a validated HPLC-MS/MS method under GLP conditions at Synta Pharmaceuticals Corp. Calibration curve coefficients of determination (r^2) ranged from 0.9897 to 0.9992. Back-calibrated calibration standards were in good agreement with QC samples with bias ≤ ± 3%, and calibration-curve r^2 variation was ≤ ± 6.5% across a concentration range of 0.100 through 100 ng/ml.
Pharmacokinetic parameters were computed non-compartmentally using standard methods within a validated installation of WinNonlin (v4.1, Pharsight Corporation, St. Louis, MO). Parameters included the maximum concentration (Cmax), area under the plasma concentration versus time curve (AUC), time of maximum concentration (Tmax), and terminal elimination half-life (t1/2).

HSP70 protein in plasma = HSP70 protein in plasma by ELISA; type: in vivo, human; conditions: for Peak circulating plasma HSP70 level: NSCLC patient, 150 mg/m^2
Experimental: Pre-dose blood samples on Days 1, 8 and 15 of Cycle 1 and 2 were collected for assessment of HSP70 protein in plasma by ELISA. Assays were performed using high sensitivity HSP70 ELISA kits (Assay Design, Ann Arbor, Michigan), with a sensitivity limit as low as 90 pg/ml, according to manufacturers’ instructions. Results were detected using a microplate ELISA reader at 450 nm with a correction wavelength of 540 nm. Concentrations of HSP70 were normalized to the total protein in each plasma sample.

[2] = tested on: patients with advanced solid tumors; parameters: method as in unpublished observation; conditions: over 400 patients treated in other studies; ref unpublished observation; cited from earlier work
[3] = one NSCLC patient, 150 mg/m^2, BRAF G469A mutation
[4] = 1-hour IV infusion, across doses

Structure (SMILES): CC(C)c1cc(-c2n[nH]c(=O)n2-c2ccc3c(ccn3C)c2)c(O)cc1O [Ganetespib, 5-[2,4-dihydroxy-5-(1 methyl-ethyl)phenyl]-2,4 dihydro-4-(1-methyl-1H indol-5 yl)-3H-1,2,4 triazole-3-one]
- Disease control rate (≥ 8 weeks) (advanced solid tumors; 259 mg/m^2, n = 6): 2 (33.3) n (%)
- Disease control rate (≥ 16 weeks) (advanced solid tumors; 259 mg/m^2, n = 6): 2 (33.3) n (%)
- Best response: Complete response (advanced solid tumors; 259 mg/m^2, n = 6): 0 n (%)
- Best response: Non-evaluable (advanced solid tumors; 259 mg/m^2, n = 6): 1 (16.7) n (%)
- Best response: Partial response (advanced solid tumors; 259 mg/m^2, n = 6): 0 n (%)
- Best response: Progressive disease (advanced solid tumors; 259 mg/m^2, n = 6): 3 (50) n (%)
- Best response: Stable disease (advanced solid tumors; 259 mg/m^2, n = 6): 2 (33.3) n (%)
- Disease control rate (≥ 8 weeks) (advanced solid tumors; 7-114 mg/m^2, n = 25): 11 (44) n (%)
- Disease control rate (≥ 16 weeks) (advanced solid tumors; 7-114 mg/m^2, n = 25): 5 (20) n (%)
- Best response: Complete response (advanced solid tumors; 7-114 mg/m^2, n = 25): 0 n (%)
- Best response: Non-evaluable (advanced solid tumors; 7-114 mg/m^2, n = 25): 4 (16) n (%)
- Best response: Partial response (advanced solid tumors; 7-114 mg/m^2, n = 25): 1 (4) n (%)
- Best response: Progressive disease (advanced solid tumors; 7-114 mg/m^2, n = 25): 10 (40) n (%)
- Best response: Stable disease (advanced solid tumors; 7-114 mg/m^2, n = 25): 10 (40) n (%)
- Patients with SD for at least 8 weeks (advanced solid tumors; 10 patients with NSCLC): 60%
- Duration of SD (range) (advanced solid tumors; 23 patients with SD): 46 to 563 days
- Disease control rate (≥ 8 weeks) (advanced solid tumors; 150-216 mg/m^2, n = 22): 11 (50) n (%)
- Disease control rate (≥ 16 weeks) (advanced solid tumors; 150-216 mg/m^2, n = 22): 6 (27.3) n (%)
- Best response: Complete response (advanced solid tumors; 150-216 mg/m^2, n = 22): 0 n (%)
- Best response: Non-evaluable (advanced solid tumors; 150-216 mg/m^2, n = 22): 6 (27.3) n (%)
- Best response: Partial response (advanced solid tumors; 150-216 mg/m^2, n = 22): 0 n (%)
- Best response: Progressive disease (advanced solid tumors; 150-216 mg/m^2, n = 22): 5 (22.7) n (%)
- Best response: Stable disease (advanced solid tumors; 150-216 mg/m^2, n = 22): 11 (50) n (%)
- Disease control rate (≥ 8 weeks) (advanced solid tumors; Overall response, n = 53): 24 (45.3) n (%)
- Disease control rate (≥ 16 weeks) (advanced solid tumors; Overall response, n = 53): 13 (24.5) n (%)
- Best response: Complete response (advanced solid tumors; Overall response, n = 53): 0 n (%)
- Best response: Non-evaluable (advanced solid tumors; Overall response, n = 53): 11 (20.8) n (%)
- Best response: Partial response (advanced solid tumors; Overall response, n = 53): 1 (1.9) n (%)
- Best response: Progressive disease (advanced solid tumors; Overall response, n = 53): 18 (34) n (%)
- Best response: Stable disease (advanced solid tumors; Overall response, n = 53): 23 (43.4) n (%)
- Disease control rate (PR and SD ≥ 16 weeks) (advanced solid tumors; all patients): 24.5%
- Patients with SD (advanced solid tumors; all patients): 43.4%
- Doses generally associated with disease stabilization (advanced solid tumors; heavily pre-treated patients with metastatic cancers): higher than 80 mg/m^2
- Patients with PR (advanced solid tumors; metastatic colorectal cancer): One patient
- Maximum reduction in target lesions (advanced solid tumors; [3]): 26.5%
- Time on study (advanced solid tumors; [3]): 13 months
- Maximum reduction in target lesions (advanced solid tumors; one patient with metastatic GIST, 216 mg/m^2, PDGFRA^D842V exon 18 mutation): 18%
- Duration of disease stabilization (advanced solid tumors; one patient with neuroendocrine tumor, 259 mg/m^2): over 20 months
- Tmax occurrence at the time of the 0.5 h sample ([1]; 1-hour IV infusion): 39 % of drug administrations
- Mean steady state volume of distribution (Vss) [1, 4]: 107 ± 98 L/m^2
- Plasma drug clearance [1, 4]: 28.55 ± 9.33 L/h/m^2
- Tmax ([1]; human, plasma, 1-hour IV infusion): 0.79 h
- Vd ([1]; human, plasma, 1-hour IV infusion, across doses, read-out: Mean steady state volume of distribution (Vss)): 196 ± 172 L
- clearance ([1]; human, plasma, 1-hour IV infusion, across doses, read-out: Plasma drug clearance (converted)): 877 mL/min
- half-life ([1]; human, plasma, 1-hour IV infusion, across doses, read-out: Terminal t1/2 (mean ± SD) (converted)): ~7.54 h
- Drug accumulation ([1]; once-weekly doses, Day 1 vs Day 15): no apparent drug accumulation
- Coefficient of variation for clearance ([1]; overall variability in exposure): 33.8%
- Plasma concentration as % of Cmax ([1]; within 8 to 10 h): ~1 % of Cmax
- Plasma concentration as % of Cmax ([1]; within 1 h of infusion termination): approximately 10 % of Cmax
- Peak circulating plasma HSP70 level (HSP70 protein in plasma; Cycle 1): 750 ng/g
- Peak circulating plasma HSP70 level (HSP70 protein in plasma; Cycle 2): 730 ng/g
- Hsp70 plasma protein levels versus baseline (HSP70 protein in plasma; Days 8 and 15, pre-dose, majority of patients): significantly elevated
- Dose levels at which Hsp70 induction saturates (HSP70 protein in plasma; mean maximum increase of HSP70 in Cycle 1): above 180 mg/m^2
- Persistence of elevated HSP70 protein plasma levels following drug exposure (HSP70 protein in plasma; post treatment): over a week; also recorded: at least a week
- Incidence of treatment related visual changes [2]: < 3%
